Data published in patent US20100197789A1, “ANTI-OBESITY AGENT AND USE THEREOF” (National University Corporation Nagoya University, priority 2006, published 2010).

Columns and labels:
Assay type in all cases: in vivo, mouse
db/^+m mice = experiment: Rectal temperature, db/+m mice; settings: (±)-baclofen 2.7 mg/dl in drinking water for 5 weeks
Procedure: 5 week-old male C57BL/KsJ-db/^+m mice (db/^+m mice: body weight 19 to 23 g, Japan SLC, Inc.) were purchased and individually fed in tip cages. To the db/^+m mice, normal pellet diet (CE-2) was administered under free water intake and free food intake. A body weight and a food intake amount over 24 hours were measured every day from the start of feeding. On day 3 after the start of feeding, blood was taken from an orbit after 6 hour-fasting and a blood glucose level and a blood insulin concentration were measured. The db/^+m mice were divided into two groups (10 mice per each group) so that a body weight, a 24 hour-food intake amount, a blood glucose level, and a blood insulin concentration were equal, and defined to be a control group and a baclofen treated group. […] A food intake amount and a body weight of the db/^+m mice were measured over time, and a rectal temperature was measured 5 weeks after the start of the administration. […]
R-baclofen and S-baclofen were administered to db/db/mice and (±)-baclofen was administered to db/^+m mice respectively for 5 weeks, and rectal temperatures were then continuously measured for 3 days at 20 o'clock immediately before the dark period when feed intake was started in the mice. […] That is, the rectal temperatures were measured by using a digital thermistor (manufactured by NATSUME SEISAKUSHO CO., LTD.).

db/db mice [1] = experiment: Histological study of adipose tissue (weights, fat cell size), db/db mice; settings: after 5 week-administration, 1.1 and 2.7 mg/dl in drinking water
Procedure: 5 week-old male C57BL/KsJ-db/db mice (db/db mice: body weight 19 to 25 g, Japan SLC, Inc.) were purchased and individually fed in tip cages. For the db/db mice, normal pellet diet (CE-2) was administered under free water intake and free food intake. A body weight and a food intake amount over 24 hours were measured every day from the start of feeding. On day 3 after the start of feeding, blood was taken from an orbit after 6 hour-fasting and a blood glucose level and a blood insulin concentration were measured. The db/db mice were divided into three groups (10 mice per each group) so that a body weight, a 24 hour-food intake amount, a blood glucose level, and a blood insulin concentration were equal, and defined to be a control group, a low concentration baclofen treated group, and a high concentration baclofen treated group. After division into the groups, from day 5 after the start of feeding, (±)-baclofen was dissolved in drinking water and 5 week-continuous oral administration to the baclofen treated groups was started. (±)-baclofen was dissolved in drinking water at a concentration of 1.1 mg/dl in the low concentration treated group and at a concentration of 2.7 mg/dl in the high concentration treated group. A food intake amount and a body weight were measured over time during the period of 5 week-administration of (±)-baclofen, blood was taken after the end of the 5-week administration, and the db/db mice were sacrificed by cervical luxation. Brains, epididymal white adipose tissues, subcutaneous white adipose tissues and brown adipose tissues were surgically removed. The brains and brown adipose tissues were frozen in dry ice and liquid nitrogen immediately after the removal and then preserved at −80° C. The epididymal white adipose tissues and subcutaneous white adipose tissues were measured in weights, and then fixed in 4% formaldehyde and preserved at 4° C. […]

DIO mice = experiment: Rectal temperature, oxygen consumption and motor activity, DIO mice
Procedure: (§1) (±)-baclofen was orally administered to db/db mice and DIO mice for 5 weeks and rectal temperatures were measured 5 weeks after the start of the administration, and oxygen consumptions and motor activity were measured by using a small animal metabolism measuring system (model MK-5000: Muromachi Kikai Co., Ltd.).

db/db mice [2] = experiment: Rectal temperature, oxygen consumption and motor activity, db/db mice
Procedure: 5 week-old male C57BL/KsJ-db/db mice (db/db mice: body weight 19 to 25 g, Japan SLC, Inc.) were purchased and individually fed in tip cages. For the db/db mice, normal pellet diet (CE-2) was administered under free water intake and free food intake. A body weight and a food intake amount over 24 hours were measured everyday from the start of feeding. On day 3 after the start of feeding, blood was taken from an orbit after 6 hour-fasting and a blood glucose level and a blood insulin concentration were measured. The db/db mice were divided into three groups (10 mice per each group) so that a body weight, a 24 hour-food intake amount, a blood glucose level, and a blood insulin concentration were equal, and defined to be a control group, an R-baclofen treated group, and an S-baclofen treated group. […] After division into the groups, from day 5 after the start of feeding, R-baclofen and S-baclofen were dissolved in drinking water and 5 week-continuous oral administration was started. Both of R-baclofen and S-baclofen were dissolved in drinking water at a concentration of 1.1 mg/dl used in the low concentration treated group in the experiment of baclofen racemic mixture administration. A food intake amount and a body weight were measured over time, and a rectal temperature was measured 5 weeks after the start of the administration. Blood was taken after the 5-week administration of baclofen, and the db/db mice were sacrificed by cervical luxation.
R-baclofen and S-baclofen were administered to db/db/mice and (±)-baclofen was administered to db/^+m mice respectively for 5 weeks, and rectal temperatures were then continuously measured for 3 days at 20 o'clock immediately before the dark period when feed intake was started in the mice. The method of measuring rectal temperatures was as follows. That is, the rectal temperatures were measured by using a digital thermistor (manufactured by NATSUME SEISAKUSHO CO., LTD.).
as §1

UCP1 mRNA = experiment: Real time PCR, UCP1 mRNA in brown adipose tissues, db/db mice; settings: after 5 week-administration, 1.1 and 2.7 mg/dl in drinking water
Procedure: 5 week-old male C57BL/KsJ-db/db mice (db/db mice: body weight 19 to 25 g, Japan SLC, Inc.) were purchased and individually fed in tip cages. For the db/db mice, normal pellet diet (CE-2) was administered under free water intake and free food intake. A body weight and a food intake amount over 24 hours were measured every day from the start of feeding. On day 3 after the start of feeding, blood was taken from an orbit after 6 hour-fasting and a blood glucose level and a blood insulin concentration were measured. […] A food intake amount and a body weight were measured over time during the period of 5 week-administration of (±)-baclofen, blood was taken after the end of the 5-week administration, and the db/db mice were sacrificed by cervical luxation. […] The epididymal white adipose tissues and subcutaneous white adipose tissues were measured in weights, and then fixed in 4% formaldehyde and preserved at 4° C.
RNA was taken out from the brown adipose tissues preserved at −80° C., and expression of a UCP-1 mRNA was examined in the real time quantitative […] method by using ABI PRISM (registered trademark) 7700 Sequence Detection System.

[3] = (±)-baclofen oral, 5 weeks after start of administration

SMILES: NCC(CC(=O)O)c1ccc(Cl)cc1 (racemic) [(±)-baclofen, (RS)-4-amino-3-(4-chlorophenyl)butanoic acid]
- rectal temperature (db/^+m mice): did not give a significant effect
- size of a fat cell (epididymal white adipose tissue, H-E stain) (db/db mice [1]): decreases
- weight of epididymal white adipose tissues (db/db mice [1]): Significant decreases
- weight of subcutaneous white adipose tissue (db/db mice [1]): no significant decrease
- oxygen consumption (DIO mice; (±)-baclofen oral 5 weeks): significantly increased
- body temperature (rectal) (DIO mice; [3]): significantly raised
- oxygen consumption (db/db mice [2]; (±)-baclofen oral 5 weeks): significantly increased
- body temperature (rectal) (db/db mice [2]; [3]): significantly raised
- UCP1 mRNA expression in brown adipose tissues (UCP1 mRNA): Significant increases
